Each compound was assayed against T1, Human PDE2A3 enzyme (Homo sapiens, UniProt O00408) (assay: PDE Enzyme Inhibition Assay (SPA, [3H]cGMP)). Details: compound 10 μM; substrate [3H]cGMP 77 nM; 60 min at room temperature; duplicate.
T1 construct: transfected with the full-length gene; His-tag; made in house; host or cells: Sf9 insect cells
Type: biochemical
Description: Human PDE2A3 enzyme was generated from Sf9 cells transfected with the full-length gene. The extracted enzyme from Sf9 cells was purified by His-tag affinity column and gel filtration. The enzyme was stored at −70° C. until use. PDE activity was measured using a SPA (Scintillation Proximity Assay) (GE Healthcare). To evaluate the inhibitory activity, 10 μl of serial diluted compounds were incubated with 20 μl of PDE enzyme in assay buffer (50 mM HEPES-NaOH, 8.3 mM MgCl2, 1.7 mM EGTA, 0.1% BSA (pH 7.4)) at room temperature for 30 min. Final concentration of DMSO in the assay was 1%. The evaluation of the compounds were performed in duplicate in 96-well half-area plates (Corning) or 384-well OptiPlate (PerkinElmer). To start the reaction, 10 μl of substrate [^3H] cGMP (77 nM, PerkinElmer) was added for a final assay volume of 40 μl. After 60 min incubation at room temperature, 20 μl of yttrium SPA beads (20 mg/ml) containing zinc sulphate was added thereto to terminate the PDE reaction. After being settled for additional 1 hr, the assay plates were counted in a scintillation counter (PerkinElmer) to allow calculation of inhibition rate. Inhibition rate was calculated on the basis of 0% control wells with enzyme and DMSO, and 100% control wells without enzyme.

T1 sequence (O00408 whole entry): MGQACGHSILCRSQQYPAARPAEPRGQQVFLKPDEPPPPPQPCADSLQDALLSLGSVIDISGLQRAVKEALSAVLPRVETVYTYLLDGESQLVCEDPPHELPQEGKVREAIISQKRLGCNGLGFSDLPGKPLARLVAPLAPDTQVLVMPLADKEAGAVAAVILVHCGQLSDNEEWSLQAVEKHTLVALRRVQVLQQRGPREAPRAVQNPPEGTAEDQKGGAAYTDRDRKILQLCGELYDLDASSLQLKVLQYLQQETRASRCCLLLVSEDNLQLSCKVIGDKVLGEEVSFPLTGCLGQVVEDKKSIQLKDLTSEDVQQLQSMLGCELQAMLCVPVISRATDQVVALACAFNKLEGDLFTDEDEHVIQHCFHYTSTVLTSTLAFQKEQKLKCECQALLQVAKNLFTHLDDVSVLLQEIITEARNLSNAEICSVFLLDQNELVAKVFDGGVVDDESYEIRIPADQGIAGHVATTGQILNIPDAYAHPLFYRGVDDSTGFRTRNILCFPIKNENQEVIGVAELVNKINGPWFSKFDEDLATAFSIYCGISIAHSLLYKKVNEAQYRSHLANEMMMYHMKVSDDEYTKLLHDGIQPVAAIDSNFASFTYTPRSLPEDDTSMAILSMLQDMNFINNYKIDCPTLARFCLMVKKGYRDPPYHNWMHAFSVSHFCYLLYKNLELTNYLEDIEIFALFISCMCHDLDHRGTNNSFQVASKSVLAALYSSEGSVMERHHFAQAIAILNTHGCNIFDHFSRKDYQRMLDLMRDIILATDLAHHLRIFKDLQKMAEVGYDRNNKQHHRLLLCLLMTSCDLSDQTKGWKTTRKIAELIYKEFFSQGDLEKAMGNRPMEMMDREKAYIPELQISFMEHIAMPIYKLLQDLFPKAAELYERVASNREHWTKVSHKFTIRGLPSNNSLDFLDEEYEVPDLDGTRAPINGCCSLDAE

| inhibition at 10 µM [%] | Compound |
| --- | --- |
| 100 | CCC(Oc1ccc(OC(F)(F)F)cc1)C(=O)N1CC(=O)Nc2cccnc21 (centres unmarked) [Example 3, optical active form of 4-(2-(4-(trifluoromethoxy)phenoxy)butanoyl)-3,4-dihydropyrido[2,3-b]pyrazin-2 (1H)-one] |
| 98 | CCC(Oc1ccc(C(F)(F)F)cc1)C(=O)N1CC(=O)Nc2cccnc21 (centres unmarked) [Example 4, 4-(2-(4-(trifluoromethyl)phenoxy)butanoyl)-3,4-dihydropyrido[2,3-b]pyrazin-2(1H)-one] |
| 98 | CC(C)C(Oc1ccc(C(F)(F)F)cc1)C(=O)N1CC(=O)Nc2cccnc21 (centres unmarked) [Example 21, 4-(3-methyl-2-(4-(trifluoromethyl)phenoxy)butanoyl)-3,4-dihydropyrido[2,3-b]pyrazin-2(1H)-one] |
| 96 | O=C1CN(C(=O)[C@@H]2CCCN2c2ccc(OC(F)(F)F)cc2)c2ncccc2N1 [Example 25, 4-(1-(4-(trifluoromethoxy)phenyl)prolyl)-3,4-dihydropyrido[2,3-b]pyrazin-2(1H)-one] |
| 99 | CCC(Oc1ccc(-n2cccn2)cc1)C(=O)N1CC(=O)Nc2cccnc21 (centres unmarked) [Example 55, 4-(2-(4-(1H-pyrazol-1-yl)phenoxy)butanoyl)-3,4-dihydropyrido[2,3-b]pyrazin-2(1H)-one] |
| 95 | CCC(Oc1ccc(S(=O)(=O)C(F)(F)F)cc1)C(=O)N1CC(=O)Nc2cccnc21 (centres unmarked) [Example 75, 4-(2-(4-((trifluoromethyl)sulfonyl)phenoxy)butanoyl)-3,4-dihydropyrido[2,3-b]pyrazin-2(1H)-one] |
| 100 | CCC(Oc1ccc(OC(F)(F)F)cc1)C(=O)N1CC(=O)Nc2ccc(-c3ccn(C)n3)nc21 (centres unmarked) [Example 132, optical active form of 6-(1-methyl-1H-pyrazol-3-yl)-4-(2-(4-(trifluoromethoxy)phenoxy)butanoyl)-3,4-dihydropyrido[2,3-b]pyrazin-2(1H)-one] |
| 99 | COc1cnc2c(c1)NC(=O)CN2C(=O)C(Oc1ccc(-n2cccn2)c(F)c1)C(C)C (centres unmarked) [Example 135, 4-(2-(3-fluoro-4-(1H-pyrazol-1-yl)phenoxy)-3-methylbutanoyl)-7-methoxy-3,4-dihydropyrido[2,3-b]pyrazin-2(1H)-one] |

Further lines, the compound ahead of its results:

| Compound | inhibition at 10 µM [%] |
| --- | --- |
| CCC(Oc1ccc(OC(F)(F)F)cc1)C(=O)N1CC(=O)Nc2cc(C)cnc21 (centres unmarked) [Example 6, 7-methyl-4-(2-(4-(trifluoromethoxy)phenoxy)butanoyl)-3,4-dihydropyrido[2,3-b]pyrazin-2(1H)-one] | 100 |
| COCCC(Oc1ccc(OC(F)(F)F)cc1)C(=O)N1CC(=O)Nc2cccnc21 (centres unmarked) [Example 18, 4-(4-methoxy-2-(4-(trifluoromethoxy)phenoxy)butanoyl)-3,4-dihydropyrido[2,3-b]pyrazin-2(1H)-one] | 99 |
| CCC(Nc1ccc(OC(F)(F)F)cc1)C(=O)N1CC(=O)Nc2cccnc21 (centres unmarked) [Example 23, 4-(2-((4-(trifluoromethoxy)phenyl)amino)butanoyl)-3,4-dihydropyrido[2,3-b]pyrazin-2(1H)-one] | 97 |
| CCC(Oc1ccc(OC(F)(F)F)cc1)C(=O)N1CC(=O)Nc2ccc(C)nc21 (centres unmarked) [Example 28, optical active form of 6-methyl-4-(2-(4-(trifluoromethoxy)phenoxy)butanoyl)-3,4-dihydropyrido[2,3-b]pyrazin-2(1H)-one] | 99 |
| CCC(Oc1ccc(OC(F)(F)F)cc1)C(=O)N1CC(=O)Nc2c(C)ccnc21 (centres unmarked) [Example 29, optical active form of 8-methyl-4-(2-(4-(trifluoromethoxy)phenoxy)butanoyl)-3,4-dihydropyrido[2,3-b]pyrazin-2(1H)-one] | 99 |
| CCC(Oc1ccc(C(C)C)cc1)C(=O)N1CC(=O)Nc2cccnc21 (centres unmarked) [Example 47, 4-(2-(4-isopropylphenoxy)butanoyl)-3,4-dihydropyrido[2,3-b]pyrazin-2(1H)-one] | 98 |

Source: patent US9527841B2, “Substituted pyrido[2,3-b]pyrazines as phosphodiesterase 2A inhibitors” (Takeda Pharmaceutical Company Limited, priority 2012, dated 2016)
